# Results as given in patent US6696480B2, “Upregulation of type III endothelial cell nitric oxide synthase by agents that disrupt actin cytoskeletal organization” (Brigham and Women's Hospital, Inc., priority 1998, dated 2004).
# “And” between values parts separate entries of the source, which are not always exact repeats. Equal entries are not always repeated. Where two headings read alike, the source gives them in different places.
# Key:
# human endothelial cells = assay: Cellular viability (cell count, morphology, Trypan blue exclusion); conditions: simvastatin 0.01 to 0.1 mmol/L, lovastatin 10 mmol/L, up to 96 h
# ecNOS protein = conditions: for increase in ecNOS protein levels compared to ox-LDL alone: co-treatment with ox-LDL, simvastatin 0.1 mmol/L; for ecNOS protein levels, % of basal levels: hypoxia (3% O2)
# ecNOS gene transcription = assay: Nuclear run-on assay of ecNOS gene transcription
# ecNOS [1] = assay: ecNOS activity, LNMA-inhibitable nitrite production (modified nitrite assay); type: cell-based, human
# ecNOS [2] = assay: ecNOS activity from tissues, arginine to citrulline conversion in mouse aortae; type: in vivo, SV-129 mice; conditions: 2 mg/kg, 14 days
# Experimental: The ecNOS activities in mice aortae and brains were measured by the conversion of [^3H]arginine to [^3H]citrulline in the presence and absence of LNMA (5 mM) as described earlier.
# ecNOS mRNA [3] = assay: Northern blotting of ecNOS steady-state mRNA in endothelial cells; type: cell-based, human; parameters: ecNOS mRNA levels increased to / ecNOS mRNA levels, % of basal levels / effect on basal ecNOS mRNA levels: unit of the concentration uncertain; conditions: for increase in ecNOS mRNA levels compared to ox-LDL: co-treatment with ox-LDL, simvastatin 0.1 mmol/L; for ecNOS mRNA levels, % of basal levels: hypoxia + simvastatin (1 (unit uncertain))
# Experimental: Equal amounts of total RNA (10-20 mg) were separated by 1.2% formaldehyde-agarose gel electrophoresis and transferred overnight onto Hybond nylon membranes. […] All Northern blots were subjected to stringent washing conditions (0.2× SSC/0.1% SDS at 65° C.) prior to autoradiography. RNA loading was determined by rehybridization with human GAPDH probe.
# ecNOS mRNA [4] = assay: ecNOS mRNA half-life in the presence of actinomycin D; type: cell-based, human; conditions: for half-life of ecNOS mRNA (t1/2) / ecNOS mRNA half-life: actinomycin D; for ecNOS mRNA half-life: simvastatin 1 mM
# [5] = tested on: cerebral ischemia, left middle cerebral artery (MCA) occlusion; assay: Murine model of cerebral vascular ischemia (MCA occlusion); type: in vivo, SV-129 mice
# Excerpt: Ischemia was produced by occluding the left middle cerebral artery (MCA) with a coated 8.0 nylon monofilament under anesthesia as described (Huang, Z et al., J Cereb Blood Flow Metab, 1996, 16:981-987, Huang, Z et al., Science, 1994, 265:1883-1885, Hara, H et al., J Cereb Blood Flow Metab, 1997, 1:515-526). Arterial blood pressure, heart rate, arterial oxygen pressure, and partial pressure of carbon dioxide were monitored as described (Huang, Z et al., J Cereb Blood Flow Metab, 1996, 16:981-987, Huang, Z et al., Science, 1994, 265:1883-1885, Hara, H et al., J Cereb Blood Flow Metab, 1997, 1:515-526). The filaments were withdrawn after 2 hours and after 24 h, mice were either sacrificed or tested for neurological deficits using a well-established, standardized, observer-blinded protocol as described (Huang, Z et al., J Cereb Blood Flow Metab, 1996, 16:981-987, Huang, Z et al., Science, 1994, 265:1883-1885, Hara, H et al., J Cereb Blood Flow Metab, 1997, 1:515-526). The motor deficit score range from 0 (no deficit) to 2 (complete deficit).
# Brains were divided into five coronal 2-mm sections using a mouse brain matrix (RBM-200C, Activated Systems, Ann Arbor, Mich., USA). Infarction volume was quantitated with an image analysis system (M4, St. Catharines, Ontario, Canada) on 2% 2,3,5-triphenyltetrazolium chloride stained 2-mm slices. The levels of serum cholesterol, creatinine and transaminases were determined by the Tufts University Veterinary Diagnostic Laboratory (Grafton, Mass.).
# ecNOS mRNA [6] = assay: Quantitative RT-PCR of ecNOS mRNA in mouse aortae and brains; type: in vivo, SV-129 mice; conditions: dose-dependent, 14 days
# Excerpt: Total RNA from mouse aortae and brains was isolated by the guanidinium isothiocyanate method and reverse transcribed using oligo-dT (mRNA Preamplification reagents; Gibco BRL) and Taq ploymerase (Perkin-Elmer). One tenth of the sDNA was used as template for the PCR reaction. […] [NT] ID NO. 1) and 3'Primer: […] For amplification of glyceraldehyde 3-phosphate dehydrogenase (GAPDH), 0.1 nmol of the following primers amplifying a 452-bp fragment were used: 5'Primer: [NT] ID NO. 3) and 3' Primer: […] NO. 4). Denaturing was performed at 94° C. for 30 s, annealing at 60° C. for 30 s, and elongation at 72° C. for 60 s.
# [7] = ox-LDL + simvastatin 0.1 mmol/L
# [8] = simvastatin 1 mM alone (20% O2)
# [9] = wild-type mice, 2 mg/kg, 14 days
compound,measurement,setting,value
CCC(C)(C)C(=O)O[C@H]1C[C@@H](C)C=C2C=C[C@H](C)[C@H](CC[C@@H]3C[C@@H](O)CC(=O)O3)[C@H]21 [simvastatin],noticeable adverse effects on human endothelial cell,human endothelial cells,Neither simvastatin (0.01 to 0.1 mmol/L) nor lovastatin (10 mmol/L) produced any noticeable adverse effects
same,increase in ecNOS protein levels compared to ox-LDL alone,ecNOS protein; 24 h,1.3 fold
same,increase in ecNOS protein levels compared to ox-LDL alone,ecNOS protein; 72 h,3.3 fold
same,increase in ecNOS protein levels compared to ox-LDL alone,ecNOS protein; 96 h,8.9 fold
same,"ecNOS protein levels, % of basal levels","ecNOS protein; 48 h, simvastatin 1 mM",159±13%
same,"ecNOS protein levels, % of basal levels","ecNOS protein; 48 h, simvastatin 10 mM",223±21%
same,effect on ecNOS expression,ecNOS protein; not chemically-activated statin (10),no effect
same,decrease in ecNOS protein,"ecNOS protein; ox-LDL + simvastatin 0.01 mmol/L, 48 h",57%±8%
same,decrease in ecNOS protein level,"ecNOS protein; ox-LDL + simvastatin 0.1 mmol/L, 24 h",15% (2%
same,decrease in ecNOS protein,"ecNOS protein; ox-LDL + simvastatin 0.1 mmol/L, 48 h",4%±7%
same,ecNOS protein levels increased above basal expression,"ecNOS protein; ox-LDL + simvastatin 0.1 mmol/L, 72 h",110% (6%
same,ecNOS protein levels increased above basal expression,"ecNOS protein; ox-LDL + simvastatin 0.1 mmol/L, 96 h",124% (6%
same,ecNOS protein levels above baseline,"ecNOS protein; ox-LDL + simvastatin 1 mmol/L, 48 h",146%±9% and 150% (8%
same,upregulation of ecNOS expression,ecNOS protein; simvastatin alone (1),2.9 fold
same,decrease in ecNOS gene transcription,ecNOS gene transcription; hypoxia + simvastatin 1 mM,83±6%
same,increase in ecNOS gene transcription,"ecNOS gene transcription; simvastatin alone, normoxic condition",20±5%
same,decrease in ecNOS activity compared to untreated cells,ecNOS [1]; [7],28±3%
same,ecNOS-dependent nitrite production,ecNOS [1]; [7],"6.4±0.3 nmol/500,000 cells/24 h"
same,ecNOS-dependent nitrite production,ecNOS [1]; ox-LDL + simvastatin 1 mmol/L,"12.8±2.7 nmol/500,000 cells/24 h"
same,increase in ecNOS activity compared to baseline,ecNOS [1]; ox-LDL + simvastatin 1 mmol/L,45±6%
same,nitrite production,ecNOS [1]; [8],"30±6.5 nmol/500,000 cells/24 h"
same,upregulation of nitrite production,ecNOS [1]; [8],5 fold
same,increase in ecNOS activity over basal activity,"ecNOS [1]; simvastatin 1 mM, 3% O2, 24 h",3 fold
same,nitrite production,"ecNOS [1]; simvastatin 1 mM, 3% O2, 24 h","18±5.0 nmol/500,000 cells/24 h"
same,ecNOS activity in aortae,ecNOS [2],0.39±0.09 U/mg protein
same,increase in ecNOS mRNA levels compared to ox-LDL,ecNOS mRNA [3]; 48 h,6.3 fold
same,increase in ecNOS mRNA levels compared to ox-LDL,ecNOS mRNA [3]; 72 h,14.5 fold
same,"ecNOS mRNA levels, % of basal levels",ecNOS mRNA [3]; 24 h,195±12%
same,"ecNOS mRNA levels, % of basal levels",ecNOS mRNA [3]; 48 h,530±30%
same,ecNOS mRNA levels increased to,"ecNOS mRNA [3]; simvastatin (1 (unit uncertain)) alone, normoxia",340±24%
same,prolongation of ecNOS mRNA half-life,"ecNOS mRNA [4]; ox-LDL + simvastatin 0.1 mmol/L, versus ox-LDL",1.6 fold
same,half-life of ecNOS mRNA (t1/2),ecNOS mRNA [4]; [7],22 ± 3 h
same,ecNOS mRNA half-life,ecNOS mRNA [4]; hypoxic,38 ± 4 h
same,ecNOS mRNA half-life,ecNOS mRNA [4]; normoxic,46 ± 4 h
same,prolongation of ecNOS mRNA half-life over baseline,ecNOS mRNA [4]; simvastatin alone,1.3 fold
same,half-life of ecNOS mRNA (t1/2),ecNOS mRNA [4]; simvastatin alone,43 ± 4 h
same,increase in cerebral blood flow over basal values,[5]; 2 mg/kg,23%
same,improvement of neurological motor deficit score compared to controls,"[5]; 2 mg/kg, 14 days",~2 fold
same,neurological motor deficit score,"[5]; 2 mg/kg, 14 days, 2 h MCA occlusion, 22 hours of reperfusion, score 0 to 2",0.8±0.2
same,increase in cerebral blood flow over basal values,[5]; 20 mg/kg,35%
same,persistence of the effect on cerebral infarct size,"[5]; mouse, in vivo",up to 3 days
same,cerebral infarct size,[5]; [9],73.8±8.5 mm3
same,smaller cerebral infarct sizes compared to untreated animals,[5]; [9],25%
same,increase of ecNOS message compared to that of GAPDH in aortae,ecNOS mRNA [6],3 fold
